Among the data in US20240327393A1 (SIRONAX LTD., priority 2021, published 2024) are EC50 values, retold here.

The assay relates to HT-1080 (ATCC, CCL-121) cells. Kind of assay: HT-1080 cell viability assay with ferroptosis inducer RSL3 (Cell Titer-Glo). It counts as cell-based. Particulars: Homo sapiens, HT-1080 cells treated with RSL3, 3-fold, 10-point dilution, 1.1 μM highest concentration, read-out: EC50 (nM), ferroptosis inhibitory activity. The procedure:
Example 2. Determination of EC50 Values in HT-1080 Cell Viability Assay
HT-1080 (ATCC, CCL-121) cells (6000 in 100 μl) were seeded in 96-well plates (Corning) and cultured in a 37° C. incubator with a humidified atmosphere of 5% CO2 for overnight. Cells were then treated with ferroptosis inducer RSL3 (TargetMol) and a 3-fold, 10-point serial dilution series of compounds with 1.1 μM as the highest concentration, […]. Cell viability was assessed using the Cell Titer-Glo Kit (Promega). The luminescence intensity was measured with a microplate reader (Envision, PerkinElmer), and cell viability was calculated by normalizing the data to untreated controls. The EC50 values of the compounds (e.g., Compounds 1-659) were calculated in GraphPad Prism (GraphPad Software, Inc., San Diego, CA, USA). The curves were fitted using a non-linear regression model with a sigmoidal dose response.

Structures are written as SMILES. Like-named read-outs stand apart in the source and are kept apart here.

What is called EC50 is the concentration at which the effect is half-maximal. Regarding `CC(C)(O)C1CCN(c2ccc(Nc3ccc4c(c3)OCC(=O)N4)cc2)CC1` [Compound 543, 7-((4-(4-(2-hydroxypropan-2-yl)piperidin-1-yl)phenyl)amino)-2H-benzo[b][1,4]oxazin-3(4H)-on], the EC50 (Table 3) lay in the range of 0.1 to 100 nM.

`CC1CCN(c2ccc(Nc3ccc4c(c3)ncc(=O)n4C)cc2)CC1` [Compound 115, 1-methyl-6-((4-(4-methylpiperidin-1-yl)phenyl)amino)quinoxalin-2(1H)-one]: the EC50 (Table 2) was in the range of 0.1 to 100 nM.

For the molecule `CC1CCN(c2ccc(Nc3ccc4c(c3)C(=O)N(C)C4)cc2)CC1` [Compound 170, 2-methyl-6-((4-(4-methylpiperidin-1-yl)phenyl)amino)isoindolin-1-one], where the note is “Table 2”, the EC50 lay in the range of 0.1 to 100 nM.

With `CN1Cc2cc(Nc3ccc(N4CCCCC4)cc3)ccc2C1=O` [Compound 217, 2-methyl-5-((4-(piperidin-1-yl)phenyl)amino)isoindolin-1-one], the EC50 (Table 2) lay in the range of 0.1 to 100 nM.

In the case of `c1ccc(Nc2ccc3c(c2)CCNC3)cc1` [Compound 104, N-phenyl-1,2,3,4-tetrahydroisoquinolin-6-amine], the EC50 (Table 2) is 0.1 to 100 nM.

Consider `CCNc1nc2cc(Nc3ccc(N4CCC(C(F)(F)F)CC4)cc3)ccc2n1C` [Compound 401, N2-ethyl-1-methyl-N5-(4-(4-(trifluoromethyl)piperidin-1-yl)phenyl)-1H-benzo[d]imidazole-2,5-diamine], for which the EC50 (Table 2) lay within 0.1 to 100 nM.

In the case of `Cn1c(=O)oc2ccc(Nc3ccc(N4CCCCC4)cc3)cc21` [Compound 389, 3-methyl-5-((4-(piperidin-1-yl)phenyl)amino)benzo[d]oxazol-2(3H)-one], the EC50 (Table 2) lay within 0.1 to 100 nM.

On to `CC1CCN(c2ccc(Nc3cc(Cl)c4c(c3)CN(C)C4)cc2)CC1` [Compound 267, 7-chloro-2-methyl-N-(4-(4-methylpiperidin-1-yl)phenyl)isoindolin-5-amine], for which the EC50 (Table 2) lay within 0.1 to 100 nM.

`Cc1nc(N2CC(C)(C)OC(C)(C)C2)ccc1Nc1ccc2c(c1)OCC(=O)N2` [Compound 504]: the EC50 (Table 3) was in the range of 0.1 to 100 nM.

Regarding `Cc1cc(N2CCC(OC(F)(F)F)C2)ccc1Nc1ccc2c(c1)OCC(=O)N2` (stereo not shown) [Compound 589, 7-((2-methyl-4-(3-(trifluoromethoxy)pyrrolidin-1-yl)phenyl)amino)-2H-benzo[b][1,4]oxazin-3(4H)-one], the EC50 (Table 3) lay within 0.1 to 100 nM.

On to `O=C1CSc2cc(Nc3ccc(N4CCC(C(F)(F)F)CC4)cc3)ccc2N1` [Compound 582, 7-((4-(4-(trifluoromethyl)piperidin-1-yl)phenyl)amino)-2H-benzo[b][1,4]thiazin-3(4H)-one], for which the EC50 (Table 3) was in the range of 0.1 to 100 nM.

With `Cc1cc(N2CCC(C(F)(F)F)CC2)ccc1Nc1ccn2nccc2c1` [Compound 612, N-(2-methyl-4-(4-(trifluoromethyl)piperidin-1-yl)phenyl) pyrazolo[1,5-a]pyridin-5-amine], the EC50 (Table 3) fell in the range of 0.1 to 100 nM.

Turning to `Cn1c(=O)n(C)c2cc(Nc3ccc4c(c3)OCCO4)ccc21` [Compound 307, 5-((2,3-dihydrobenzo[b][1,4]dioxin-6-yl)amino)-1,3-dimethyl-1,3-dihydro-2H-benzo[d]imidazol-2-one], the EC50 (Table 2) is 100 to 1000 nM.

Turning to `CN1C(=O)COc2cc(Nc3cc(F)c(N4CCC(C(F)(F)F)CC4)c(F)c3)ccc21` [Compound 57, 7-((3,5-difluoro-4-(4-(trifluoromethyl)piperidin-1-yl)phenyl)amino)-4-methyl-2H-benzo[b][1,4]oxazin-3(4H)-one], the EC50 (Table 2) lay within 0.1 to 100 nM.

For `CN(C)c1cccc(Nc2ccc3c(c2)n(C)c(=O)n3C)c1` [Compound 308, 5-((3-(dimethylamino)phenyl)amino)-1,3-dimethyl-1,3-dihydro-2H-benzo[d]imidazol-2-one], under “Table 2”, the EC50 fell in the range of 0.1 to 100 nM.

Take `Cc1cc(N2CCC(F)(F)CC2)ccc1Nc1ccc2c(c1)OCC(=O)N2` [Compound 525, 7-((4-(4,4-difluoropiperidin-1-yl)-2-methylphenyl)amino)-2H-benzo[b][1,4]oxazin-3(4H)-one]: under “Table 3”, the EC50 was 0.1 to 100 nM.

In the case of `COCCN1C(=O)COc2cc(Nc3ccc(N4CC(C)OC(C)C4)cc3)ccc21` (stereo not shown) [Compound 95, 7-((4-(2,6-dimethylmorpholino)phenyl)amino)-4-(2-methoxyethyl)-2H-benzo[b][1,4]oxazin-3(4H)-one], the EC50 (Table 2) lay within 0.1 to 100 nM.

In the case of `Cc1cc(N2CCC(C(F)(F)F)CC2)ccc1Nc1ccn2ncc(C(N)=O)c2c1` [Compound 625, 5-((2-methyl-4-(4-(trifluoromethyl)piperidin-1-yl)phenyl)amino) pyrazolo[1,5-a]pyridine-3-carboxamide], where the note is “Table 3”, the EC50 fell in the range of 0.1 to 100 nM.

For `O=C1COc2cc(Nc3cnc(N4CCC(C(F)(F)F)CC4)nc3)ccc2N1` [Compound 475, 7-((2-(4-(trifluoromethyl)piperidin-1-yl)pyrimidin-5-yl)amino)-2H-benzo[b][1,4]oxazin-3(4H)-one], the concentration giving a half-maximal response (EC50) (Table 3) was in the range of 0.1 to 100 nM.

For the molecule `O=C1COc2cc(Nc3cnc(N4CCC(C(F)(F)F)CC4)c(F)c3)ccc2N1` [Compound 459, 7-((5-fluoro-6-(4-(trifluoromethyl)piperidin-1-yl)pyridin-3-yl)amino)-2H-benzo[b][1,4]oxazin-3(4H)-one], where the note is “Table 3”, the EC50 lay in the range of 0.1 to 100 nM.

Regarding `Cc1cc(N2CCC(C)CC2)ccc1Nc1ccc2c(c1)OCC(=O)N2` [Compound 491, 7-((2-methyl-4-(4-methylpiperidin-1-yl)phenyl)amino)-2H-benzo[b][1,4]oxazin-3(4H)-one], under “Table 3”, the EC50 fell in the range of 0.1 to 100 nM.

In the case of `Cn1c(=O)n(C)c2cc(Nc3ccc(C4CCC(C)(C)CC4)cc3)ccc21` [Compound 407, 5-((4-(4,4-dimethylcyclohexyl)phenyl)amino)-1,3-dimethyl-1,3-dihydro-2H-benzo[d]imidazol-2-one], the EC50 (Table 2) lay within 0.1 to 100 nM.

For `CC1CCN(c2ccc(Nc3ccc4c(c3)c(C(=O)O)cn4C)cc2)CC1` [Compound 353, 1-methyl-5-((4-(4-methylpiperidin-1-yl)phenyl)amino)-1H-indole-3-carboxylic acid], for the setting “Table 2”, the EC50 lay within 0.1 to 100 nM.

In the case of `Cn1c(=O)n(C)c2cc(Nc3ccccc3)ccc21` [Compound 382, 1,3-dimethyl-5-(phenylamino)-1,3-dihydro-2H-benzo[d]imidazol-2-one], the concentration giving a half-maximal response (EC50) (Table 2) lay in the range of 0.1 to 100 nM.

`CN1C(=O)COc2cc(Nc3ccc(N4CCC(C(F)(F)F)CC4)cc3)c(O)cc21` [Compound 495, 6-hydroxy-4-methyl-7-({4-[4-(trifluoromethyl)piperidin-1-yl]phenyl}amino)-2H-1,4-benzoxazin-3-one]: the EC50 (Table 3) fell in the range of 0.1 to 100 nM.

Consider `Cc1cc(N2CC(C)(F)C2)ccc1Nc1ccc2c(c1)OCCC(=O)N2` [Compound 623], for which the EC50 (Table 3) was in the range of 0.1 to 100 nM.

With `Cc1cc(N2CCC(C(C)(C)O)CC2)ccc1Nc1ccc2c(c1)OCC(=O)N2` [Compound 542, 7-((4-(4-(2-hydroxypropan-2-yl)piperidin-1-yl)-2-methylphenyl)amino)-2H-benzo[b][1,4]oxazin-3(4H)-one], the EC50 (Table 3) was in the range of 0.1 to 100 nM.

For the molecule `COCCn1c(=O)n(C)c2ccc(Nc3ccc(N4CCC(C(F)(F)F)CC4)cc3)cc21` [Compound 334, 3-(2-methoxyethyl)-1-methyl-5-((4-(4-(trifluoromethyl)piperidin-1-yl)phenyl)amino)-1,3-dihydro-2H-benzo[d]imidazol-2-one], the EC50 (Table 2) was in the range of 0.1 to 100 nM.

Regarding `CCn1c(=O)cnc2cc(Nc3ccc(N4CCC(C)CC4)cc3)ccc21` [Compound 117], the EC50 (Table 2) fell in the range of 0.1 to 100 nM.

As for `CC1CN(c2ccc(Nc3ccc4c(c3)OCC(=O)N4C)cc2F)CC(C)O1` (stereo not shown) [Compound 73, 7-((4-(2,6-dimethylmorpholino)-3-fluorophenyl)amino)-4-methyl-2H-benzo[b][1,4]oxazin-3(4H)-one], the EC50 (Table 2) is 0.1 to 100 nM.

Turning to `Cn1c(=O)oc2cc(Nc3ccc(N4CC(C)(C)C4)cc3)ccc21` [Compound 324, 6-((4-(3,3-dimethylazetidin-1-yl)phenyl)amino)-3-methylbenzo[d]oxazol-2(3H)-one], where the note is “Table 2”, the EC50 was in the range of 0.1 to 100 nM.

With `Cc1cc(Nc2cc(F)c3c(c2)OCC(=O)N3)ccc1N1CCC(C(F)(F)F)CC1` [Compound 481, 5-fluoro-7-((3-methyl-4-(4-(trifluoromethyl)piperidin-1-yl)phenyl)amino)-2H-benzo[b][1,4]oxazin-3(4H)-one], under “Table 3”, the EC50 was 0.1 to 100 nM.

Turning to `Cc1cc(Nc2ccc3c(c2)OCC(=O)N3)ccc1N1CC(C)OC(C)C1` (stereo not shown) [Compound 138, 7-((4-(2,6-dimethylmorpholino)-3-methylphenyl)amino)-2H-benzo[b][1,4]oxazin-3(4H)-one], the half-maximal effective concentration (EC50) (Table 2) lay in the range of 0.1 to 100 nM.

Take `Cc1cc(N2CCC(C(F)(F)F)CC2)c(F)cc1Nc1ccc2c(c1)OCC(=O)N2` [Compound 488, 7-((5-fluoro-2-methyl-4-(4-(trifluoromethyl)piperidin-1-yl)phenyl)amino)-2H-benzo[b][1,4]oxazin-3(4H)-one]: the EC50 (Table 3) fell in the range of 0.1 to 100 nM.

Consider `CN1C(=O)COc2cc(Nc3ccc(N4CCC(CF)CC4)cc3)ccc21` [Compound 23, 7-((4-(4-(fluoromethyl)piperidin-1-yl)phenyl)amino)-4-methyl-2H-benz o[b][1,4]oxazin-3(4H)-one], for which the EC50 (Table 2) was 0.1 to 100 nM.

For `Cn1c(=O)n(C)c2cc(Nc3ccc(C(F)(F)F)cc3)ccc21` [Compound 404, 1,3-dimethyl-5-((4-(trifluoromethyl)phenyl)amino)-1,3-dihydro-2H-benzo [d]imidazol-2-one], where the note is “Table 2”, the EC50 was in the range of 0.1 to 100 nM.

Regarding `Cc1nc(N2CCOC(C)(C)C2)ccc1Nc1ccc2c(c1)OCC(=O)N2` [Compound 500, 7-((6-(2,2-dimethylmorpholino)-2-methylpyridin-3-yl)amino)-2H-benzo[b][1,4]oxazin-3(4H)-one], the EC50 (Table 3) was 0.1 to 100 nM.
